Reference: US7507761B2, “Benzopyran derivatives, method of production and use thereof” (Universite de Liege, priority 2004, dated 2009)
Where two headings read alike, the source gives them in different places.

Key:
rat pancreatic islets [1] = details: cited from earlier work; for Residual insulin secretion (%) [10 μM]: 10 μM compound, published results (footnotes b, c)
rat aorta rings = assay: Measurement of tension in rat aorta rings (myorelaxant activity); type: cell-based; details: KCl-contracted rat aorta rings; concentration evoking 50% inhibition of plateau phase; mean ± s.e.m. (n); read-out: Myorelaxant activity ED50
Experimental: Measurement of tension in rat aorta rings was performed according to the following procedure.
Experiments were performed with aorta removed from adult fed Wistar rats (Charles River Laboratories, Belgium).
A section of the thoracic aorta was cleared of adhering fat and connective tissue and was cut into transverse rings (3-4 mm long). The endothelium was removed and the segments suspended under 1.5 g tension in an organ bath containing 20 mL of a physiological solution (in mM: NaCl 118, KCl 4.7, CaCl2 2.5, NaHCO3 25, KH2PO4 1.2, MgSO4 1.2, glucose 5). The physiological solution was maintained at 37° C. and continuously bubbled with a mixture of O2 (95%) and CO2 (5%). Isometric contractions were measured with a force-displacement transducer. After 60 minutes of equilibration, the rings were exposed to KCl (30 or 80 mM). When the tension had stabilized, the chroman derivative was added to the bath at increasing concentrations until maximal relaxation (or until 300 µM). Some experiments were repeated in the continuous presence of 1 or 10 µM glibenclamide in the bathing medium.
The relaxation response was expressed as the percentage of the contractile response to KCl. The ED50 values (concentration evoking 50% inhibition of the plateau phase induced by KCl) were assessed from dose-response curves using Datanalyst software (EMKA Technologies, France).

rat pancreatic islets [2] = assay: Insulin release from incubated rat pancreatic islets; type: cell-based; details: 10 μM compound, 16.7 mM glucose, % of control without drug; mean ± s.e.m. (n)
Experimental: Measurement of insulin release from incubated rat pancreatic islets was performed according to the following procedure.
Experiments were performed with pancreatic islets isolated from adult fed Wistar rats (Charles River Laboratories, Belgium).
Groups of 10 islets, each derived from the same batch of islets, were preincubated for 30 minutes at 37° C. in 1 mL of a physiological salt medium (in mM: NaCl 115, KCl 5, CaCl2 2.56, MgCl2 1, NaHCO3 24) supplemented with 2.8 mM glucose, 0.5% (w:v) dialyzed albumin (Sigma) and equilibrated against a mixture of O2 (95%) and CO2 (5%). The islets were then incubated at 37° C. for 90 minutes in 1 mL of the same medium containing 16.7 mM glucose and, in addition, the required benzopyran derivative.
The release of insulin was measured radioimmunologically according to Leclercq-Meyer et al., Endocrinology, 1985, 116, 1168-1174 using rat insulin as a standard.
Residual insulin secretion was expressed as a percentage of the value recorded in control experiments (100%); i.e. in the absence of drug and presence of 16.7 mM glucose. Measurement of 86Rb outflow from perifused rat pancreatic islets was performed according to the following procedure. Groups of 100 islets were incubated for 60 min in a medium containing 16.7 mM glucose and 86Rb (0.15-0.25 mM; 50 μCi/ml). After incubation, the islets were washed three times and then placed in a perifusion chamber. The perifusate was delivered at a constant rate (1.0 ml/min). From the 31st to the 90th min, the effluent was continuously collected over successive periods of 1 min each. An aliquot of the effluent (0.6 ml) was used for scintillation counting. At the end of the perifusion, the radioactive content of the islets was determined. The outflow of 86Rb (cpm/min) was expressed as a fractional outflow rate (% of instantaneous islet content/min; FOR).

For `CC1=NS(=O)(=O)c2cc(Cl)ccc2N1` [Diazoxide, diazoxide], the “Residual insulin secretion (%) [10 μM]” value (rat pancreatic islets [1]) is listed as 71.7 ± 2.8 (38)^b %.
In the case of `CC(N/C(=N\C#N)Nc1ccncc1)C(C)(C)C` (stereo not drawn) [Pinacidil, pinacidil], the “Residual insulin secretion (%) [10 μM]” value (rat pancreatic islets [1]) is given as 96.0 ± 4.2 (20)^c % and the EC50 (rat aorta rings) is given as 350 ± 20 nM.
For `COc1cccc(NC(=S)NC2CC(C)(C)Oc3ccc(F)cc32)c1` (stereo not drawn) [Example 22, R/S-3,4-Dihydro-2,2-dimethyl-6-fluoro-4-(3-methoxyphenylaminothiocarbonylamino)-2H-1-benzopyran], the “Residual insulin secretion (%) [10 μM]” value (rat pancreatic islets [2]) was 52.0 ± 2.3%.
With `CC1(C)CC(NC(=O)Nc2cccc(Cl)c2)c2cc(F)ccc2O1` (stereo not drawn) [Example 77, R/S-4-(3-Chlorophenylaminocarbonylamino)-3,4-dihydro-2,2-dimethyl-6-fluoro-2H-1-benzopyran] the “Residual insulin secretion (%) [10 μM]” value (rat pancreatic islets [2]) was 28.0 ± 1.5%.
In the case of `CC1(C)CC(NC(=S)Nc2cccnc2)c2cc(Br)ccc2O1` (stereo not drawn) [Example 42, R/S-6-Bromo-3,4-dihydro-2,2-dimethyl-4-(3-pyridylaminothiocarbonylamino)-2H-1-benzopyran], the “Residual insulin secretion (%) [10 μM]” value (rat pancreatic islets [2]) is reported as 44.3 ± 2.8%.
In the case of `CC1(C)Oc2ccc(C#N)cc2C(N2CCCC2=O)C1O` (stereo not drawn) [Cromakalim, cromakalim], the “Activity as an inhibitor of insulin secretion (in words)” value (rat pancreatic islets [1]; background statement, reflects poor activity as PCO on pancreatic KATP channels) is listed as “poorly active”, the “Residual insulin secretion (%) [10 μM]” value (rat pancreatic islets [2]) is listed as 94.7 ± 4.3 (24) % and the EC50 (rat aorta rings) is listed as 130 ± 10 nM.
With `CC1(C)CC(NC(=O)Nc2ccc(Cl)cc2)c2cc(Br)ccc2O1` (stereo not drawn) [Example 82, R/S-6-Bromo-4-(4-chlorophenylaminocarbonylamino)-3,4-dihydro-2,2-dimethyl-2H-1-benzopyran] the “Residual insulin secretion (%) [10 μM]” value (rat pancreatic islets [2]) was 25.7 ± 1.5%.
In the case of `Cc1cccc(NC(=S)NC2CC(C)(C)Oc3ccc(F)cc32)c1` (stereo not drawn) [Example 4, R/S-3,4-Dihydro-2,2-dimethyl-6-fluoro-4-(3-methylphenylaminothiocarbonylamino)-2H-1-benzopyran], the “Residual insulin secretion (%) [10 μM]” value (rat pancreatic islets [2]) is reported as 53.1 ± 3.6%.
In the case of `Cc1ccc(NC(=S)NC2CC(C)(C)Oc3ccc(Cl)cc32)cc1` (stereo not drawn) [Example 8, R/S-6-Chloro-3,4-dihydro-2,2-dimethyl-4-(4-methylphenylaminothiocarbonylamino)-2H-1-benzopyran], the “Residual insulin secretion (%) [10 μM]” value (rat pancreatic islets [2]) is reported as 32.8 ± 1.9%.
